Source: US20070117743A1, “New antitumoral compounds” (priority 2003, published 2007)
Where a SMILES comes first, the peptide text is derived from it. Bridges are numbered along the chain shown (N, C = ends). [ ]: non-standard residue; d: D form. The star is where a group is joined. d(aIle) = CC[C@H](C)[C@@H](N)C(=O)O; d(aThr) = C[C@@H](O)[C@@H](N)C(=O)O; Hexanoyl(5-Me) = CC(C)CCCC(=O)*; Myristoyl = CCCCCCCCCCCCCC(=O)*; Orn = NCCC[C@H](N)C(=O)O; Dhb = C/C=C(\N)C(=O)O

Assays:
Assay type in all cases: cell-based, human
[1] = test system: SK-OV-3; assay: SRB colorimetric assay of cell growth and viability, SK-OV-3; details: 48 hours exposure; for GI50: read-out: GI50 SKOV-3; for CC50: read-out: LC50 SKOV-3
Description: The finality of this assay is to interrupt the growth of a “in vitro” tumor cell culture by means a continued exhibition of the cells to the sample to be testing.
A colorimetric type of assay, using sulforhodamine B (SRB) reaction has been adapted for a quantitative measurement of cell growth and viability [following the technique described by Philip Skehan, et al. (1990), New colorimetric cytotoxicity assay for anticancer drug screening, J. Natl. Cancer Inst., 82:1107-1112].
This form of the assay employs 96 well cell culture microplates of 9 mm diameter (Faircloth, 1988; Mosmann, 1983). Most of the cell lines are obtained from American Type Culture Collection (ATCC) derived from different human cancer types.
Cells are maintained in RPMI 1640 10% FBS, supplemented with 0.1 g/l penicillin and 0.1 g/l streptomycin sulfate and then incubated at 37° C., 5% CO2 and 98% humidity. For the experiments, cells were harvested from subconfluent cultures using trypsin and resuspended in fresh medium before plating.
Cells are seeded in 96 well microtiter plates, at 5×10^3 cells per well in aliquots of 195 μL medium, and they are allowed to attach to the plate surface by growing in drug free medium for 18 hours. Afterward, samples are added in aliquots of 5 μL in a ranging from 10 to 10^−8 μg/mL, dissolved in DMSO:EtOH:PBS (0.5:0.5:99). After 48 hours exposure, the antitumor effect are measured by the SRB methodology: cells are fixed by adding 50 μL of cold 50% (wt/vol) trichloroacetic acid (TCA) and incubating for 60 minutes at 4° C. Plates are washed with deionized water and dried. One hundred μL of SRB solution (0.4% wt/vol in 1% acetic acid) is added to each microtiter well and incubated for 10 minutes at room temperature. Unbound SRB is removed by washing with 1% acetic acid. Plates are air dried and bound stain is solubilized with Tris buffer. Optical densities are read on a automated spectrophotometric plate reader at a single wavelength of 490 nm.
The values for mean+/− SD of data from triplicate wells are calculated. Some parameters for cellular responses can be calculated: GI=growth inhibition, TGI=total growth inhibition (cytostatic effect) and LC=cell killing (cytotoxic effect).

[2] = test system: SK-MEL-28; assay: SRB colorimetric assay of cell growth and viability, SK-MEL-28; details: 48 hours exposure; for CC50: read-out: LC50 MEL-28
[3] = test system: DU-145; assay: SRB colorimetric assay of cell growth and viability, DU-145; details: 48 hours exposure
[4] = test system: IGROV-1; assay: SRB colorimetric assay of cell growth and viability, IGROV-1; details: 48 hours exposure
[5] = test system: A-549; assay: SRB colorimetric assay of cell growth and viability, A-549; details: 48 hours exposure; for GI50: read-out: GI50 A-549; for CC50: read-out: LC50 A-549
[6] = test system: HT-29; assay: SRB colorimetric assay of cell growth and viability, HT-29; details: 48 hours exposure; for GI50: read-out: GI50 HT-29; for CC50: read-out: LC50 HT-29
[7] = test system: LoVo; assay: SRB colorimetric assay of cell growth and viability, LoVo; details: 48 hours exposure; for CC50: read-out: LC50 LOVO
[8] = test system: K-562; assay: SRB colorimetric assay of cell growth and viability, K-562; details: 48 hours exposure; for CC50: read-out: LC50 K-562
[9] = test system: PANC-1; assay: SRB colorimetric assay of cell growth and viability, PANC-1; details: 48 hours exposure; for CC50: read-out: LC50 PANC-1
[10] = test system: LoVo-Dox; assay: SRB colorimetric assay of cell growth and viability, LoVo-Dox; details: 48 hours exposure; for CC50: read-out: LC50 LOVO-DOX
Summary of the method: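 Continuous 48-hour exposure of cells plated at 5×10^3 per well, with compounds diluted in DMSO:EtOH:PBS (0.5:0.5:99) over 10 to 10^−8 μg/mL. Staining with SRB and reading at 490 nm give GI, TGI and LC.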

[11] = test system: LNCaP; assay: SRB colorimetric assay of cell growth and viability, LNCaP; details: 48 hours exposure; for GI50: read-out: GI50 LN-caP; for CC50: read-out: LC50 LN-caP
[12] = test system: IGROV-ET; assay: SRB colorimetric assay of cell growth and viability, IGROV-ET; details: 48 hours exposure; for CC50: read-out: LC50 IGROV-ET

Question: Which “TGI SKOV-3” value [1] does the source give for `C/C=C1\NC(=O)[C@H](Cc2ccccc2)NC(=O)[C@@H](C(C)C)NC(=O)[C@@H]([C@@H](C)CC)NC(=O)[C@H](NC(=O)[C@H](NC(=O)[C@H](CCCN)NC(=O)[C@H]2CCCN2C(=O)[C@H](NC(=O)CCCCCCCCCCCCC)C(C)C)[C@@H](C)CC)[C@@H](C)OC(=O)[C@H](C(C)C)NC1=O` [Compound 32, [noVal^11, noThr^12, noD-Val^13, Mst^14]-KF] (Myristoyl-[dV][dP][Orn][d(aIle)][d(aThr)][d(aIle)][dV]F[Dhb]V; ester 5-C) here?
Answer: 6.27E−06 Molar

Question: And the GI50 [1]?
Answer: 2340 nM

Question: What about the CC50 [1] of the same molecule?
Answer: 7830 nM

Question: What about the GI50 [2] of the same molecule?
Answer: 2080 nM

Question: What about the “TGI MEL-28” value [2] of the same molecule?
Answer: 3.63E−06 Molar

Question: What about the CC50 [2] of the same molecule?
Answer: 6.34 µM

Question: And the GI50 [3]?
Answer: 2120 nM

Question: And the LC50 (concentration causing 50% net cell kill) [3]?
Answer: 6.81 µM

Question: What about the “TGI DU-145” value [3] of the same molecule?
Answer: 3.80E−06 Molar

Question: What about the GI50 [4] of the same molecule?
Answer: 2290 nM

Question: What about the LC50 (concentration causing 50% net cell killing) [4] of the same molecule?
Answer: 5.51 µM

Question: What about the “TGI IGROV” value [4] of the same molecule?
Answer: 3.56E−06 Molar

Question: What about the “TGI A-549” value [5] of the same molecule?
Answer: 7.83E−06 Molar

Question: And the GI50 [5]?
Answer: 5190 nM

Question: And the CC50 [5]?
Answer: 7.83 µM

Question: What about the “TGI HT-29” value [6] of the same molecule?
Answer: 7.83E−06 Molar

Question: What about the GI50 [6] of the same molecule?
Answer: 7660 nM

Question: And the CC50 [6]?
Answer: 7.83 µM

Question: What about the GI50 [7] of the same molecule?
Answer: 7830 nM

Question: What about the “TGI LOVO” value [7] of the same molecule?
Answer: 7.83E−06 Molar

Question: And the CC50 [7]?
Answer: 7830 nM

Question: What about the GI50 [8] of the same molecule?
Answer: 1910 nM

Question: What about the “TGI K-562” value [8] of the same molecule?
Answer: 4.21E−06 Molar

Question: And the CC50 [8]?
Answer: 7.83 µM

Question: And the GI50 [9]?
Answer: 1780 nM

Question: What about the “TGI PANC-1” value [9] of the same molecule?
Answer: 3.12E−06 Molar

Question: And the CC50 [9]?
Answer: 5.49 µM

Question: What about the GI50 [10] of the same molecule?
Answer: 2150 nM

Question: And the “TGI LOVO-DOX” value [10]?
Answer: 3.66E−06 Molar

Question: And the CC50 [10]?
Answer: 6.21 µM

Question: And the “TGI LN-caP” value [11]?
Answer: 3.08E−06 Molar

Question: What about the GI50 [11] of the same molecule?
Answer: 1420 nM

Question: And the CC50 [11]?
Answer: 6.67 µM

Question: What about the GI50 [12] of the same molecule?
Answer: 2060 nM

Question: And the “TGI IGROV-ET” value [12]?
Answer: 3.26E−06 Molar

Question: What about the CC50 [12] of the same molecule?
Answer: 5.16 µM

Question: What does the source list for `C/C=C1\NC(=O)[C@H](Cc2ccccc2)NC(=O)[C@@H](C(C)C)NC(=O)[C@@H]([C@@H](C)CC)NC(=O)[C@H](NC(=O)[C@H](NC(=O)[C@H](CCCN)NC(=O)[C@H]2CCCN2C(=O)[C@H](NC(=O)[C@@H](NC(=O)[C@@H](NC(=O)[C@H](NC(=O)Cc2ccc(C(F)(F)F)cc2)C(C)C)[C@@H](C)O)C(C)C)C(C)C)[C@@H](C)CC)[C@@H](C)OC(=O)[C@H](C(C)C)NC1=O` [Compound 25, [p-CF3PhAc^14]-KF]?
Answer: TGI SKOV-3 [1]: 3.29E−07 Molar; GI50 [1]: 126 nM; CC50 [1]: 1130 nM; GI50 [2]: 1400 nM; TGI MEL-28 [2]: 2.14E−05 Molar; CC50 [2]: 4.06 µM; GI50 [3]: 251 nM; LC50 (concentration causing 50% net cell kill) [3]: 2.38 µM; TGI DU-145 [3]: 7.86E−07 Molar; GI50 [4]: 252 nM; LC50 (concentration causing 50% net cell killing) [4]: 1.96 µM; TGI IGROV [4]: 4.54E−07 Molar; TGI A-549 [5]: 9.67E−07 Molar; GI50 [5]: 297 nM; CC50 [5]: 3.24 µM; TGI HT-29 [6]: 1.41E−06 Molar; GI50 [6]: 555 nM; CC50 [6]: 3.32 µM; GI50 [7]: 203 nM; TGI LOVO [7]: 4.59E−07 Molar; CC50 [7]: 1610 nM; GI50 [8]: 1420 nM; TGI K-562 [8]: 3.06E−06 Molar; CC50 [8]: 6.44 µM; GI50 [9]: 1580 nM; TGI PANC-1 [9]: 3.07E−06 Molar; CC50 [9]: 5.96 µM; GI50 [10]: 176 nM; TGI LOVO-DOX [10]: 3.92E−07 Molar; CC50 [10]: 1.43 µM; TGI LN-caP [11]: 1.19E−06 Molar; GI50 [11]: 320 nM; CC50 [11]: 3.66 µM; GI50 [12]: 200 nM; TGI IGROV-ET [12]: 3.23E−07 Molar; CC50 [12]: 0.521 µM

Question: With `C/C=C1\NC(=O)[C@H](Cc2ccccc2)NC(=O)[C@@H](C(C)C)NC(=O)[C@@H]([C@@H](C)CC)NC(=O)[C@H](NC(=O)[C@H](NC(=O)[C@H](CCC(=O)O)NC(=O)[C@H]2CCCN2C(=O)[C@H](NC(=O)[C@@H](NC(=O)[C@@H](NC(=O)[C@H](NC(=O)CCCC(C)C)C(C)C)[C@@H](C)O)C(C)C)C(C)C)[C@@H](C)CC)[C@@H](C)OC(=O)[C@H](C(C)C)NC1=O` [Compound 4, [Glu^8]-KF] ({Hexanoyl(5-Me)}-[dV]TV[dV][dP]E[d(aIle)][d(aThr)][d(aIle)][dV]F[Dhb]V; ester 8-C) as the molecule, how does the “TGI SKOV-3” value [1] read?
Answer: 5.85E−07 Molar

Question: And the GI50 [1]?
Answer: 195 nM

Question: What about the CC50 [1] of the same molecule?
Answer: 2260 nM

Question: And the GI50 [2]?
Answer: 2950 nM

Question: What about the “TGI MEL-28” value [2] of the same molecule?
Answer: 6.70E−06 Molar

Question: What about the CC50 [2] of the same molecule?
Answer: 6.7 µM

Question: And the GI50 [3]?
Answer: 1030 nM

Question: What about the LC50 (concentration causing 50% net cell kill) [3] of the same molecule?
Answer: 3.88 µM

Question: And the “TGI DU-145” value [3]?
Answer: 2.00E−06 Molar

Question: And the GI50 [4]?
Answer: 490 nM

Question: What about the LC50 (concentration causing 50% net cell killing) [4] of the same molecule?
Answer: 3.31 µM

Question: And the “TGI IGROV” value [4]?
Answer: 1.29E−06 Molar

Question: And the “TGI A-549” value [5]?
Answer: 4.02E−06 Molar

Question: And the GI50 [5]?
Answer: 1770 nM

Question: What about the CC50 [5] of the same molecule?
Answer: 6.7 µM

Question: What about the “TGI HT-29” value [6] of the same molecule?
Answer: 2.00E−06 Molar

Question: What about the GI50 [6] of the same molecule?
Answer: 884 nM

Question: What about the CC50 [6] of the same molecule?
Answer: 4.55 µM

Question: And the GI50 [7]?
Answer: 348 nM

Question: And the “TGI LOVO” value [7]?
Answer: 6.45E−07 Molar

Question: And the CC50 [7]?
Answer: 2650 nM

Question: And the GI50 [8]?
Answer: 2110 nM

Question: What about the “TGI K-562” value [8] of the same molecule?
Answer: 5.10E−06 Molar

Question: And the CC50 [8]?
Answer: 6.7 µM

Question: And the GI50 [9]?
Answer: 1820 nM

Question: And the “TGI PANC-1” value [9]?
Answer: 3.46E−06 Molar

Question: What about the CC50 [9] of the same molecule?
Answer: 6.6 µM

Question: What about the GI50 [10] of the same molecule?
Answer: 757 nM

Question: What about the “TGI LOVO-DOX” value [10] of the same molecule?
Answer: 1.77E−06 Molar

Question: What about the CC50 [10] of the same molecule?
Answer: 4.15 µM

Question: What about the “TGI LN-caP” value [11] of the same molecule?
Answer: 1.19E−06 Molar

Question: What about the GI50 [11] of the same molecule?
Answer: 371 nM

Question: And the CC50 [11]?
Answer: 3.62 µM

Question: And the GI50 [12]?
Answer: 817 nM

Question: And the “TGI IGROV-ET” value [12]?
Answer: 1.69E−06 Molar

Question: What about the CC50 [12] of the same molecule?
Answer: 3.52 µM
